The results in this text go back to patent US9714254B2, “Anilino podophyllin derivative having antitumor activity, method for preparation thereof, and use thereof” (HUBEI UNIVERSITY OF TECHNOLOGY, priority 2013, dated 2017).

Like-named read-outs stand apart in the source and are kept apart here.

Data set [1] deals with A549 cell line. As to the kind of experiment: MTT test of inhibiting tumor cell activity, A549. As to conditions: read-out: Cytotoxic activity (IC50, μM) A549. A general note: Tetrazolium dyes change colour on reduction, which living cells bring about.
Procedure: (§1) 3, cell lines: Hela, BGC823, A549 cell line and normal human hepatocytes which are available from Wu Han boster Co., Ltd.;
(§2) Hela, BGC823, A549 cell line and normal human hepatocytes in logarithmic growth phase are subjected to 1000 rpm centrifugation for 5 min, supernatant is then discarded, moderate medium is suspended, the cell concentration is adjusted to 3.5×10^4/well, the cells were seeded in 96-wells culture plate, and following experimental groups are set:
(§3) a negative control group; 22 test groups with same concentration (ie: groups of Compound (1) to Compound (22)); 2 control groups: groups of podophyllotoxin, 4′-demethylepipodophyllotoxin and etoposide.
(§4) Taking RPMI1640 containing 10% of calf serum as nutrient solution, 0.10 mL of cells per well is incubated under conditions of 37 V, 5% CO2 and saturated humidity for 24 h to nearly be covered, then the nutrient solution is discarded. […] 100 μl of DMSO is added to each well, then vibrated at 37° C. by shaker table for 30 min, then measuring absorbance (OD) at 492 nm, calculating MTT ratio=OD value of drug group/OD value of the negative control group.
In data set [2] the test system is BGC823 cell line. As to the kind of experiment: MTT test of inhibiting tumor cell activity, BGC823. As to conditions: read-out: Cytotoxic activity (IC50, μM) BGC823.
Procedure: as §1, §2, §3, §4
Data set [3] relates to Hela cell line. Nature of the data set: MTT test of inhibiting tumor cell activity, Hela. As to conditions: read-out: Cytotoxic activity (IC50, μM) Hela.
Procedure: as §1, §2, §3, §4
The test system of data set [4] is A549 cell line.
Procedure: as §1, §2, §3, §4
The subject of data set [5] is BGC823 cell line.
Procedure: as §1, §2, §3, §4
For data set [6], the system named is Hela cell line.
Procedure: as §1, §2, §3, §4
Setting [7] is: A549 cells, MTT, 48 h cultivation.
[8] abbreviates: BGC823 cells, MTT, 48 h cultivation.
The mark [9] stands for this setting: Hela cells, MTT, 48 h cultivation.

Turning to `COc1ccc(NC2c3cc4c(cc3C(c3cc(OC)c(O)c(OC)c3)C3C(=O)OCC23)OCO4)cc1F` (stereo not drawn) [Compound 4, 4-N-(3-fluoro-4-methoxyaniline)-4-deoxy-4′-demethylepipodophyllotoxin], the IC50 came out at 3.04 ± 0.23 µM in the data set on A549 cell line [1] (setting [7]), 0.4 ± 0.17 µM in the data set on BGC823 cell line [2] (setting [8]) and 1.97 ± 0.16 µM with Hela cell line [3] (setting [9]).

Regarding “4-N—(N,N-dimethylamino metanil)-4-deoxy-podophyllotoxin [Compound 15]”, the results for the IC50 with A549 cell line [1] (setting [7]), in the data set with BGC823 cell line [2] (setting [8]) and with Hela cell line [3] (setting [9]) were > 100 µM, 2.59 ± 0.21 µM and 1.33 ± 0.2 µM, respectively.

On to `COc1cc(C2c3cc4c(cc3C(O)C3COC(=O)C23)OCO4)cc(OC)c1O` (stereo not drawn) [4′-demethylepipodophyllotoxin, reference compound], for which the IC50 in the data set on A549 cell line [1] (setting [7]) is 52 µM; with BGC823 cell line [2] (setting [8]), 63 µM; in the data set with Hela cell line [3] (setting [9]), 49 µM.

With `COc1cc(C2c3cc4c(cc3C(Nc3ccccc3C(F)(F)F)C3COC(=O)C23)OCO4)cc(OC)c1O` (stereo not drawn) [Compound 22, 4-N-(2-aminobenzotrifluoride)-4-deoxy-4′-demethylepipodophyllotoxin], the IC50 is 9.72 ± 0.98 µM in the data set with A549 cell line [1] (setting [7]), 6.01 ± 0.12 µM with BGC823 cell line [2] (setting [8]) and 5.89 ± 0.48 µM in the data set on Hela cell line [3] (setting [9]).

In the case of `COc1cc(C2c3cc4c(cc3C(Nc3ccc(Cl)c(C)c3)C3COC(=O)C23)OCO4)cc(OC)c1OC` (stereo not drawn) [Compound 1, 4-N-(4-chloro-3-methylaniline)-4-deoxy-podophyllotoxin], the values for the IC50 with A549 cell line [4], with BGC823 cell line [5] and in the data set with Hela cell line [6] were 1.75 ± 0.83 µM, 0.62 ± 0.13 µM and 1.26 ± 0.37 µM, respectively.

`COc1cc(C2c3cc4c(cc3C(Nc3ccccc3Sc3ccccc3N)C3COC(=O)C23)OCO4)cc(OC)c1OC` (stereo not drawn) [Compound 19, 4-N-(2 2′-diaminodiphenylsulfide)-4-deoxy-podophyllotoxin]: the IC50 turned out to be 23.2 ± 0.72 µM with A549 cell line [1] (setting [7]), 6.46 ± 0.33 µM in the data set with BGC823 cell line [2] (setting [8]) and 2.14 ± 0.21 µM in the data set on Hela cell line [3] (setting [9]).

For the compound `COc1cc(C2c3cc4c(cc3C(Nc3ccc(Cc5ccc(N)cc5)cc3)C3COC(=O)C23)OCO4)cc(OC)c1O` (stereo not drawn) [Compound 6, 4-N-(4,4′-diaminodiphenylmethane)-4-deoxy-4′-demethylepipodophyllotoxin], the IC50 is 2.2 ± 0.25 µM in the data set on A549 cell line [1] (setting [7]), 3.52 ± 0.43 µM in the data set on BGC823 cell line [2] (setting [8]) and 0.56 ± 0.17 µM in the data set with Hela cell line [3] (setting [9]).

Take `COc1cc(C2c3cc4c(cc3C(Nc3ccccc3C#N)C3COC(=O)C23)OCO4)cc(OC)c1OC` (stereo not drawn) [Compound 11, 4-N-(o-aminobenzonitrile)-4-deoxy-podophyllotoxin]: the results for the IC50 in the data set with A549 cell line [1] (setting [7]), in the data set on BGC823 cell line [2] (setting [8]) and in the data set with Hela cell line [3] (setting [9]) were 1.02 ± 0.07 µM, > 100 µM and 16.9 ± 1.48 µM, respectively.

With `COc1cc(C2c3cc4c(cc3C(Nc3cc(Cl)c(O)c(Cl)c3)C3COC(=O)C23)OCO4)cc(OC)c1O` (stereo not drawn) [Compound 14, 4-N-(2,6-dichloro-4-aminophenol)-4-deoxy-4′-demethylepipodophyllotoxin], the IC50 in the data set with A549 cell line [1] (setting [7]) was 9.41 ± 0.59 µM; in the data set with BGC823 cell line [2] (setting [8]), 13.8 ± 1.42 µM; in the data set on Hela cell line [3] (setting [9]) it was 14.7 ± 0.42 µM.

For `CCc1ccc([N+](=O)[O-])cc1NC1c2cc3c(cc2C(c2cc(OC)c(OC)c(OC)c2)C2C(=O)OCC12)OCO3` (stereo not drawn) [Compound 17, 4-N-(2-ethyl-5-nitroaniline)-4-deoxy-podophyllotoxin], the IC50 with A549 cell line [1] (setting [7]) was found to be 1.4 ± 0.28 µM; in the data set on BGC823 cell line [2] (setting [8]) it was 4.24 ± 0.79 µM; in the data set on Hela cell line [3] (setting [9]), 6.01 ± 0.71 µM.

Consider `COc1cc(C2c3cc4c(cc3C(Nc3ccc(Cc5ccc(N)cc5)cc3)C3COC(=O)C23)OCO4)cc(OC)c1OC` (stereo not drawn) [Compound 5, 4-N-(4,4′-diaminodiphenylmethane)-4-deoxy-podophyllotoxin], for which the IC50 was found to be 2.32 ± 0.06 µM with A549 cell line [1] (setting [7]), 17.2 ± 0.34 µM in the data set on BGC823 cell line [2] (setting [8]) and 7.07 ± 1.63 µM with Hela cell line [3] (setting [9]).

Turning to `COc1cc(C2c3cc4c(cc3C(Nc3cccc(S(=O)(=O)N(C)C)c3)C3COC(=O)C23)OCO4)cc(OC)c1O` (stereo not drawn) [Compound 16, 4-N—(N,N-dimethylaminometanil)-4-deoxy-4′-demethylepipodophyllotoxin], the results for the IC50 with A549 cell line [1] (setting [7]), with BGC823 cell line [2] (setting [8]) and with Hela cell line [3] (setting [9]) were 2.08 ± 0.26 µM, 1.52 ± 0.39 µM and 1.06 ± 0.57 µM, respectively.

In the case of `COc1ccc(NC2c3cc4c(cc3C(c3cc(OC)c(OC)c(OC)c3)C3C(=O)OCC23)OCO4)cc1F` (stereo not drawn) [Compound 3, 4-N-(3-fluoro-4-methoxyaniline)-4-deoxy-podophyllotoxin], the IC50 in the data set with A549 cell line [1] (setting [7]) amounted to 1.97 ± 0.32 µM; with BGC823 cell line [2] (setting [8]), 3.16 ± 1.11 µM; with Hela cell line [3] (setting [9]) it was 2.57 ± 0.87 µM.

As for `COc1ccccc1NC1c2cc3c(cc2C(c2cc(OC)c(O)c(OC)c2)C2C(=O)OCC12)OCO3` (stereo not drawn) [Compound 8, 4-N-(o-aminoanisole)-4-deoxy-4′-demethylepipodophyllotoxin], the IC50 was found to be 15.3 ± 0.45 µM in the data set with A549 cell line [1] (setting [7]), 5.63 ± 1.2 µM in the data set with BGC823 cell line [2] (setting [8]) and 1.72 ± 0.3 µM in the data set on Hela cell line [3] (setting [9]).

Consider `COc1ccc(Cl)cc1NC1c2cc3c(cc2C(c2cc(OC)c(OC)c(OC)c2)C2C(=O)OCC12)OCO3` (stereo not drawn) [Compound 9, 4-N-(4-chloro-2-aminoanisole)-4-deoxy-podophyllotoxin], for which the IC50 was found to be 1.71 ± 0.26 µM in the data set on A549 cell line [1] (setting [7]), 1.24 ± 0.06 µM in the data set with BGC823 cell line [2] (setting [8]) and 8.07 ± 1.81 µM with Hela cell line [3] (setting [9]).

Consider `COc1cc([C@@H]2c3cc4c(cc3[C@@H](O[C@@H]3O[C@@H]5CO[C@@H](C)O[C@H]5[C@H](O)[C@H]3O)[C@H]3COC(=O)[C@H]23)OCO4)cc(OC)c1O` [VP-16, etoposide, reference compound], for which the results for the IC50 with A549 cell line [1] (setting [7]), with BGC823 cell line [2] (setting [8]) and with Hela cell line [3] (setting [9]) were 31.1 ± 1.72 µM, 22.3 ± 2.97 µM and 13.2 ± 1.65 µM, respectively.

`COc1cc(C2c3cc4c(cc3C(Nc3ccccc3C#N)C3COC(=O)C23)OCO4)cc(OC)c1O` (stereo not drawn) [Compound 12, 4-N-(o-aminobenzonitrile)-4-deoxy-4′-demethylepipodophyllotoxin]: the 50% inhibitory concentration (IC50) in the data set on A549 cell line [1] (setting [7]) was 11.6 ± 1.63 µM; in the data set with BGC823 cell line [2] (setting [8]), 7.91 ± 0.59 µM; in the data set with Hela cell line [3] (setting [9]), 1.92 ± 1.21 µM.

Regarding `COc1cc(C2c3cc4c(cc3C(Nc3cc(Cl)c(O)c(Cl)c3)C3COC(=O)C23)OCO4)cc(OC)c1OC` (stereo not drawn) [Compound 13, 4-N-(2,6-dichloro-4-aminophenol)-4-deoxy-podophyllotoxin], the figures for the IC50 in the data set with A549 cell line [1] (setting [7]), in the data set on BGC823 cell line [2] (setting [8]) and with Hela cell line [3] (setting [9]) were 9.66 ± 0.35 µM, 1.58 ± 0.16 µM and 17.6 ± 2.39 µM, respectively.

With `COc1ccc(Cl)cc1NC1c2cc3c(cc2C(c2cc(OC)c(O)c(OC)c2)C2C(=O)OCC12)OCO3` (stereo not drawn) [Compound 10, 4-N-(4-chloro-2-aminoanisole)-4-deoxy-4′-demethylepipodophyllotoxin], the results for the IC50 in the data set with A549 cell line [1] (setting [7]), in the data set with BGC823 cell line [2] (setting [8]) and with Hela cell line [3] (setting [9]) were 3.72 ± 0.41 µM, 1.61 ± 0.37 µM and 1.35 ± 0.18 µM, respectively.

`COc1ccccc1NC1c2cc3c(cc2C(c2cc(OC)c(OC)c(OC)c2)C2C(=O)OCC12)OCO3` (stereo not drawn) [Compound 7, 4-N-(o-aminoanisole)-4-deoxy-podophyllotoxin]: the IC50 with A549 cell line [1] (setting [7]) was found to be 3.41 ± 0.1 µM; in the data set with BGC823 cell line [2] (setting [8]) it was 6.26 ± 0.36 µM; in the data set on Hela cell line [3] (setting [9]) it was 13.4 ± 3.31 µM.

`COc1cc(C2c3cc4c(cc3C(Nc3ccccc3Sc3ccccc3N)C3COC(=O)C23)OCO4)cc(OC)c1O` (stereo not drawn) [Compound 20, 4-N-(2 2′-diaminodiphenylsulfide)-4-deoxy-4′-demethylepipodophyllotoxin]: the IC50 worked out at 1.42 ± 0.12 µM in the data set on A549 cell line [1] (setting [7]), 2.17 ± 0.23 µM with BGC823 cell line [2] (setting [8]) and 16.3 ± 0.39 µM in the data set with Hela cell line [3] (setting [9]).

Regarding `COc1cc([C@@H]2c3cc4c(cc3[C@H](O)[C@H]3COC(=O)[C@H]23)OCO4)cc(OC)c1OC` [podophyllotoxin, reference compound], the IC50 in the data set on A549 cell line [1] (Homo sapiens, A549, 48 h) worked out at 67 µM; in the data set on BGC823 cell line [2] (Homo sapiens, BGC-823, 48 h) it was 75 µM; in the data set with Hela cell line [3] (Homo sapiens, HeLa, 48 h), 55 µM.

For `COc1cc(C2c3cc4c(cc3C(Nc3ccccc3C(F)(F)F)C3COC(=O)C23)OCO4)cc(OC)c1OC` (stereo not drawn) [Compound 21, 4-N-(2-aminobenzotrifluoride)-4-deoxy-podophyllotoxin], the results for the IC50 with A549 cell line [1] (setting [7]), in the data set with BGC823 cell line [2] (setting [8]) and with Hela cell line [3] (setting [9]) were 2.11 ± 0.05 µM, 23.2 ± 0.76 µM and 2.45 ± 3.04 µM, respectively.

As a reminder, the IC50 is the concentration that inhibits the measured activity by half.
